Data: ChEMBL document CHEMBL1201862, “PubChem BioAssay data set” (2004)
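Values below derive from 48-hour exposures of cells grown in 96-well plates, with endpoints linearly interpolated between the two concentrations bracketing the appropriate inhibition level. At the GI50, growth is halved.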 The source made the active and inactive calls. Cut-off read from the data, not from the text of the source: active = GI50 up to about 1.1 µM and inactive = higher.

Tests used:
Assay in all cases: NCI tumour cell line growth inhibition, 48 h
786-0 = tested on: 786-0
A498 = tested on: A498
A549 = tested on: A549
ACHN = tested on: ACHN
BT-549 = tested on: BT-549
CAKI-1 = tested on: CAKI-1
CCRF-CEM = tested on: CCRF-CEM
COLO 205 = tested on: COLO 205
DLD-1 = tested on: DLD-1
DMS-114 = tested on: DMS-114
DMS-273 = tested on: DMS-273
DU-145 = tested on: DU-145
EKVX = tested on: EKVX
HCC 2998 = tested on: HCC 2998
HCT-116 = tested on: HCT-116
HCT-15 = tested on: HCT-15
HL-60 = tested on: HL-60
HOP-18 = tested on: HOP-18
HOP-62 = tested on: HOP-62
HOP-92 = tested on: HOP-92
HT-29 = tested on: HT-29
Hs-578T = tested on: Hs-578T
IGROV-1 = tested on: IGROV-1
K562 = tested on: K562
KM-20L2 = tested on: KM-20L2
KM12 = tested on: KM12
LOX IMVI = tested on: LOX IMVI
LXFL 529 = tested on: LXFL 529
M14 = tested on: M14
M19-MEL = tested on: M19-MEL
MCF7 = tested on: MCF7
MDA-MB-231 = tested on: MDA-MB-231
MDA-MB-435 = tested on: MDA-MB-435
MDA-N = tested on: MDA-N
MOLT-4 = tested on: MOLT-4
Malme-3M = tested on: Malme-3M
NCI-H226 = tested on: NCI-H226
NCI-H23 = tested on: NCI-H23
NCI-H460 = tested on: NCI-H460
NCI-H522 = tested on: NCI-H522
NCI/ADR-RES = tested on: NCI/ADR-RES
OVCAR-3 = tested on: OVCAR-3
OVCAR-4 = tested on: OVCAR-4
OVCAR-5 = tested on: OVCAR-5
OVCAR-8 = tested on: OVCAR-8
PC-3 = tested on: PC-3
RPMI-8226 = tested on: RPMI-8226
RXF 393 = tested on: RXF 393
SF-268 = tested on: SF-268
SF-295 = tested on: SF-295
SF-539 = tested on: SF-539
SK-MEL-28 = tested on: SK-MEL-28
SK-MEL-2 = tested on: SK-MEL-2
SK-MEL-5 = tested on: SK-MEL-5
SK-OV-3 = tested on: SK-OV-3
SN12C = tested on: SN12C
SNB-19 = tested on: SNB-19
SNB-75 = tested on: SNB-75
SNB-78 = tested on: SNB-78
SR = tested on: SR
SW-620 = tested on: SW-620
T47D = tested on: T47D
TK-10 = tested on: TK-10
U-251 = tested on: U-251
UACC-257 = tested on: UACC-257
UACC-62 = tested on: UACC-62
UO-31 = tested on: UO-31
XF498 = tested on: XF498
RXF 631 = tested on: RXF 631

Question: With `CCCCCCCCCCCCCCCCCCNC(=O)OCC(CNS(=O)(=O)CCC[n+]1cccc2ccccc21)COC` (stereo not drawn) as the molecule, how does the GI50 (786-0) read?
Answer: 3.45 µM (inactive)

Question: And the GI50 (A498)?
Answer: 10.9 µM (inactive)

Question: And the GI50 (A549)?
Answer: 1.47 µM (inactive)

Question: And the GI50 (ACHN)?
Answer: 6.75 µM (inactive)

Question: What about the GI50 (BT-549) of the same molecule?
Answer: 2.18 µM (inactive)

Question: And the GI50 (CAKI-1)?
Answer: 7.82 µM (inactive)

Question: What about the GI50 (CCRF-CEM) of the same molecule?
Answer: 1.06 µM (active)

Question: What about the GI50 (COLO 205) of the same molecule?
Answer: 0.435 µM (active)

Question: What about the GI50 (DLD-1) of the same molecule?
Answer: 2.85 µM (inactive)

Question: What about the GI50 (DMS-114) of the same molecule?
Answer: 1.18 µM (inactive)

Question: What about the GI50 (DMS-273) of the same molecule?
Answer: 0.251 µM (active)

Question: And the GI50 (DU-145)?
Answer: 12.4 µM (inactive)

Question: What about the GI50 (EKVX) of the same molecule?
Answer: 17.7 µM (inactive)

Question: And the GI50 (HCC 2998)?
Answer: 1.34 µM (inactive)

Question: What about the GI50 (HCT-116) of the same molecule?
Answer: 1.35 µM (inactive)

Question: And the GI50 (HCT-15)?
Answer: 23.7 µM

Question: What about the GI50 (HL-60) of the same molecule?
Answer: 1.23 µM (inactive)

Question: And the GI50 (HOP-18)?
Answer: 3.32 µM (inactive)

Question: And the GI50 (HOP-62)?
Answer: 3.76 µM (inactive)

Question: What about the GI50 (HOP-92) of the same molecule?
Answer: 0.838 µM (active)

Question: And the GI50 (HT-29)?
Answer: 0.565 µM (active)

Question: What about the GI50 (Hs-578T) of the same molecule?
Answer: 2 µM (inactive)

Question: And the GI50 (IGROV-1)?
Answer: 1.17 µM (inactive)

Question: What about the GI50 (K562) of the same molecule?
Answer: 3.55 µM (inactive)

Question: And the GI50 (KM-20L2)?
Answer: 0.776 µM (active)

Question: And the GI50 (KM12)?
Answer: 1.84 µM (inactive)

Question: What about the GI50 (LOX IMVI) of the same molecule?
Answer: 2.01 µM (inactive)

Question: What about the GI50 (LXFL 529) of the same molecule?
Answer: 1.21 µM (inactive)

Question: And the GI50 (M14)?
Answer: 3.7 µM (inactive)

Question: What about the GI50 (M19-MEL) of the same molecule?
Answer: 1.2 µM (inactive)

Question: And the GI50 (MCF7)?
Answer: 1.55 µM (inactive)

Question: And the GI50 (MDA-MB-231)?
Answer: 1.82 µM (inactive)

Question: What about the GI50 (MDA-MB-435) of the same molecule?
Answer: 2.1 µM (inactive)

Question: What about the GI50 (MDA-N) of the same molecule?
Answer: 1.81 µM (inactive)

Question: What about the GI50 (MOLT-4) of the same molecule?
Answer: 1.11 µM (active)

Question: What about the GI50 (Malme-3M) of the same molecule?
Answer: 3.74 µM (inactive)

Question: And the GI50 (NCI-H226)?
Answer: 1.05 µM (active)

Question: And the GI50 (NCI-H23)?
Answer: 1.16 µM (inactive)

Question: And the GI50 (NCI-H460)?
Answer: 1.34 µM (inactive)

Question: What about the GI50 (NCI-H522) of the same molecule?
Answer: 1.02 µM (active)

Question: What about the GI50 (NCI/ADR-RES) of the same molecule?
Answer: 18.5 µM (inactive)

Question: What about the GI50 (OVCAR-3) of the same molecule?
Answer: 3.99 µM (inactive)

Question: And the GI50 (OVCAR-4)?
Answer: 1.31 µM (inactive)

Question: What about the GI50 (OVCAR-5) of the same molecule?
Answer: 2.13 µM (inactive)

Question: And the GI50 (OVCAR-8)?
Answer: 2.07 µM (inactive)

Question: What about the GI50 (PC-3) of the same molecule?
Answer: 1.76 µM (inactive)

Question: And the GI50 (RPMI-8226)?
Answer: 1.37 µM (inactive)

Question: And the GI50 (RXF 393)?
Answer: 4.99 µM (inactive)

Question: And the GI50 (SF-268)?
Answer: 2.34 µM (inactive)

Question: What about the GI50 (SF-295) of the same molecule?
Answer: 2.6 µM (inactive)

Question: What about the GI50 (SF-539) of the same molecule?
Answer: 2.01 µM (inactive)

Question: And the GI50 (SK-MEL-28)?
Answer: 4.74 µM (inactive)

Question: What about the GI50 (SK-MEL-2) of the same molecule?
Answer: 1.9 µM (inactive)

Question: And the GI50 (SK-MEL-5)?
Answer: 2.06 µM (inactive)

Question: What about the GI50 (SK-OV-3) of the same molecule?
Answer: 2.49 µM (inactive)

Question: And the GI50 (SN12C)?
Answer: 1.56 µM (inactive)

Question: What about the GI50 (SNB-19) of the same molecule?
Answer: 1.4 µM (inactive)

Question: What about the GI50 (SNB-75) of the same molecule?
Answer: 2.47 µM (inactive)

Question: What about the GI50 (SNB-78) of the same molecule?
Answer: 1.23 µM (inactive)

Question: What about the GI50 (SR) of the same molecule?
Answer: 2.04 µM (inactive)

Question: What about the GI50 (SW-620) of the same molecule?
Answer: 2.16 µM (inactive)

Question: And the GI50 (T47D)?
Answer: 3.88 µM (inactive)

Question: And the GI50 (TK-10)?
Answer: 3.4 µM (inactive)

Question: What about the GI50 (U-251) of the same molecule?
Answer: 0.596 µM (active)

Question: What about the GI50 (UACC-257) of the same molecule?
Answer: 2.8 µM (inactive)

Question: And the GI50 (UACC-62)?
Answer: 1.96 µM (inactive)

Question: What about the GI50 (UO-31) of the same molecule?
Answer: 27.9 µM (inactive)

Question: And the GI50 (XF498)?
Answer: 1.43 µM (inactive)

Question: Which GI50 (786-0) does the source give for `O=C(/C=C/c1ccc(OCCCOc2ccc(/C=C/C(=O)c3ccccc3)cc2)cc1)c1ccccc1` here?
Answer: 57.4 µM (inactive)

Question: What about the GI50 (A498) of the same molecule?
Answer: > 100 µM (inactive)

Question: What about the GI50 (A549) of the same molecule?
Answer: > 100 µM (inactive)

Question: And the GI50 (ACHN)?
Answer: > 100 µM (inactive)

Question: What about the GI50 (CCRF-CEM) of the same molecule?
Answer: > 100 µM (inactive)

Question: And the GI50 (COLO 205)?
Answer: > 100 µM (inactive)

Question: And the GI50 (DLD-1)?
Answer: > 100 µM (inactive)

Question: What about the GI50 (DMS-114) of the same molecule?
Answer: > 100 µM (inactive)

Question: And the GI50 (DMS-273)?
Answer: > 100 µM (inactive)

Question: And the GI50 (EKVX)?
Answer: > 100 µM (inactive)

Question: And the GI50 (HCC 2998)?
Answer: > 100 µM (inactive)

Question: And the GI50 (HCT-116)?
Answer: 77.4 µM (inactive)

Question: And the GI50 (HCT-15)?
Answer: > 100 µM

Question: And the GI50 (HL-60)?
Answer: > 100 µM (inactive)

Question: What about the GI50 (HOP-62) of the same molecule?
Answer: > 100 µM (inactive)

Question: What about the GI50 (HT-29) of the same molecule?
Answer: > 100 µM (inactive)

Question: And the GI50 (IGROV-1)?
Answer: > 100 µM (inactive)

Question: What about the GI50 (K562) of the same molecule?
Answer: > 100 µM (inactive)

Question: And the GI50 (KM-20L2)?
Answer: > 100 µM (inactive)

Question: And the GI50 (LOX IMVI)?
Answer: > 100 µM (inactive)

Question: And the GI50 (LXFL 529)?
Answer: > 100 µM (inactive)

Question: What about the GI50 (M14) of the same molecule?
Answer: > 100 µM (inactive)

Question: And the GI50 (M19-MEL)?
Answer: > 100 µM (inactive)

Question: What about the GI50 (MOLT-4) of the same molecule?
Answer: > 100 µM (inactive)

Question: What about the GI50 (Malme-3M) of the same molecule?
Answer: > 100 µM (inactive)

Question: And the GI50 (NCI-H226)?
Answer: 36.3 µM (inactive)

Question: And the GI50 (NCI-H23)?
Answer: > 100 µM (inactive)

Question: And the GI50 (NCI-H460)?
Answer: > 100 µM (inactive)

Question: And the GI50 (OVCAR-3)?
Answer: > 100 µM (inactive)

Question: And the GI50 (OVCAR-4)?
Answer: > 100 µM (inactive)

Question: What about the GI50 (OVCAR-8) of the same molecule?
Answer: > 100 µM (inactive)

Question: And the GI50 (RPMI-8226)?
Answer: 50.7 µM (inactive)

Question: And the GI50 (RXF 393)?
Answer: > 100 µM (inactive)

Question: What about the GI50 (RXF 631) of the same molecule?
Answer: 51.2 µM (inactive)

Question: What about the GI50 (SF-268) of the same molecule?
Answer: > 100 µM (inactive)

Question: What about the GI50 (SF-295) of the same molecule?
Answer: > 100 µM (inactive)

Question: What about the GI50 (SF-539) of the same molecule?
Answer: > 100 µM (inactive)

Question: What about the GI50 (SK-MEL-28) of the same molecule?
Answer: > 100 µM (inactive)

Question: And the GI50 (SK-MEL-2)?
Answer: > 100 µM (inactive)

Question: What about the GI50 (SK-MEL-5) of the same molecule?
Answer: > 100 µM (inactive)

Question: And the GI50 (SN12C)?
Answer: > 100 µM (inactive)

Question: What about the GI50 (SNB-19) of the same molecule?
Answer: 63.2 µM (inactive)

Question: What about the GI50 (SNB-75) of the same molecule?
Answer: 33.4 µM (inactive)

Question: What about the GI50 (SR) of the same molecule?
Answer: > 100 µM (inactive)

Question: And the GI50 (SW-620)?
Answer: > 100 µM (inactive)

Question: And the GI50 (TK-10)?
Answer: > 100 µM (inactive)

Question: What about the GI50 (U-251) of the same molecule?
Answer: > 10 µM (inactive)

Question: And the GI50 (UACC-257)?
Answer: > 100 µM (inactive)

Question: What about the GI50 (UACC-62) of the same molecule?
Answer: > 100 µM (inactive)

Question: What about the GI50 (UO-31) of the same molecule?
Answer: > 100 µM (inactive)
